# Tests used:
# [1] = target: T1, HiBit-BRG1 fusion protein (Homo sapiens, UniProt P51532); assay: HiBiT-BRG1 cell-based degradation assay (Nano-Glo HiBiT Lytic Detection, 24 h); conditions: stable HeLa cell line expressing HiBit-BRG1 and LgBit, top dose 30 μM, read-out: BRG1 HiBit Degradation Maximum (%)
# T1 construct: expressed in transfected cells
# Procedure, shortened: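 HeLa cells stably expressing HiBiT-BRG1 plus LgBiT were treated with 10-point 3-fold compound dilutions (top 30 μM final) for 24 h. Lytic Nano-Glo HiBiT luminescence was read. % degradation was normalised between DMSO (high control) and 2 μM of a reference BRM/BRG1 degrader (low control).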
# [2] = target: T2, HiBit-BRM fusion protein (Homo sapiens, UniProt P51531); assay: HiBiT-BRM cell-based degradation assay (Nano-Glo HiBiT Lytic Detection, 24 h); conditions: stable HeLa cell line expressing HiBiT-BRM, top dose 30 μM
# T2 construct: expressed in transfected cells
# T2 sequence (P51531 whole entry, the tested form may be a part): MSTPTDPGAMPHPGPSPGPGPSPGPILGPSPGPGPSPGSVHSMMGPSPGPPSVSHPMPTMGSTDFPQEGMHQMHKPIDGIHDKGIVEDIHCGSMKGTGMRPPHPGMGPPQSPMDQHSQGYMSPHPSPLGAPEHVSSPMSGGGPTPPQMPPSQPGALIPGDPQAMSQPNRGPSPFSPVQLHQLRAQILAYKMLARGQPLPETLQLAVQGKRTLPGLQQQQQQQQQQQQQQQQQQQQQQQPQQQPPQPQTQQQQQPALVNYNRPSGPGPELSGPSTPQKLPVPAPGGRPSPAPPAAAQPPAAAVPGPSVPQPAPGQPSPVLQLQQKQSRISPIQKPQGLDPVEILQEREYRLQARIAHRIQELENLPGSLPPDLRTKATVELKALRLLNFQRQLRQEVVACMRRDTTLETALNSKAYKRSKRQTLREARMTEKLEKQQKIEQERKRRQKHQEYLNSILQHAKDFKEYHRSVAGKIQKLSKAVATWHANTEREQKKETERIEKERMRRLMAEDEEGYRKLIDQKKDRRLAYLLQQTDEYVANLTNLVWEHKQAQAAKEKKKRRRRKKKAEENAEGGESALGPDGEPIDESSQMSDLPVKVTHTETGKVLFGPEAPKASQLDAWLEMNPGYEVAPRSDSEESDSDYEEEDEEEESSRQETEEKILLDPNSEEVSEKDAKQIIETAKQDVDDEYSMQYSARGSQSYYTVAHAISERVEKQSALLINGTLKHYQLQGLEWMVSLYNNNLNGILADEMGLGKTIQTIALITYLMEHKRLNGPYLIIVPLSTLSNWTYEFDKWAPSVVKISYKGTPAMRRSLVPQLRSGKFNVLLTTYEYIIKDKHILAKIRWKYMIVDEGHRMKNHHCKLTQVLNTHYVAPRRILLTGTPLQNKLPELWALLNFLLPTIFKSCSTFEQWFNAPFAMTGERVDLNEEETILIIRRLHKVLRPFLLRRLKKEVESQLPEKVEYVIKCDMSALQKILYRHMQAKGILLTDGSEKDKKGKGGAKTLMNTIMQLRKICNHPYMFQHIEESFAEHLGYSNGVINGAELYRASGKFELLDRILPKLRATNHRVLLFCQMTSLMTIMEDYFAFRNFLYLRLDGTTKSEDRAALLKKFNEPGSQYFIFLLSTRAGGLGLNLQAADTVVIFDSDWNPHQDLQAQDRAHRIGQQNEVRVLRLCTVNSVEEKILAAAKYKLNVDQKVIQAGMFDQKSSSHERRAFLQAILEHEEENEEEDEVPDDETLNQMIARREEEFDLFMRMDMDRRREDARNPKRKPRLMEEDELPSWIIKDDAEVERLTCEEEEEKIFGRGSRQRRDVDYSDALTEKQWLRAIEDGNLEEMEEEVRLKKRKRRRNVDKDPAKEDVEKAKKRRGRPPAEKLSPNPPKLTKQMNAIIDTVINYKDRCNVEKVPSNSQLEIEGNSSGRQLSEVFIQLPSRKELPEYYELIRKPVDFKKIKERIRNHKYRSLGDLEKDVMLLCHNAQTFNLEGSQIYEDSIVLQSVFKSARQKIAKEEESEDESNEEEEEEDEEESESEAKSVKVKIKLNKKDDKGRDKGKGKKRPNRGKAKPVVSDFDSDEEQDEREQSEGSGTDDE
# Procedure, shortened: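 HeLa stably expressing HiBiT-BRM; 24 h compound exposure, 10-pt 3-fold dilution from 30 μM final, duplicates. Lytic LgBiT complementation, luminescence. % degradation vs DMSO (HC) and 2 μM known BRM/BRG1 degrader (LC).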
# T1 sequence (P51532 whole entry, the tested form may be a part): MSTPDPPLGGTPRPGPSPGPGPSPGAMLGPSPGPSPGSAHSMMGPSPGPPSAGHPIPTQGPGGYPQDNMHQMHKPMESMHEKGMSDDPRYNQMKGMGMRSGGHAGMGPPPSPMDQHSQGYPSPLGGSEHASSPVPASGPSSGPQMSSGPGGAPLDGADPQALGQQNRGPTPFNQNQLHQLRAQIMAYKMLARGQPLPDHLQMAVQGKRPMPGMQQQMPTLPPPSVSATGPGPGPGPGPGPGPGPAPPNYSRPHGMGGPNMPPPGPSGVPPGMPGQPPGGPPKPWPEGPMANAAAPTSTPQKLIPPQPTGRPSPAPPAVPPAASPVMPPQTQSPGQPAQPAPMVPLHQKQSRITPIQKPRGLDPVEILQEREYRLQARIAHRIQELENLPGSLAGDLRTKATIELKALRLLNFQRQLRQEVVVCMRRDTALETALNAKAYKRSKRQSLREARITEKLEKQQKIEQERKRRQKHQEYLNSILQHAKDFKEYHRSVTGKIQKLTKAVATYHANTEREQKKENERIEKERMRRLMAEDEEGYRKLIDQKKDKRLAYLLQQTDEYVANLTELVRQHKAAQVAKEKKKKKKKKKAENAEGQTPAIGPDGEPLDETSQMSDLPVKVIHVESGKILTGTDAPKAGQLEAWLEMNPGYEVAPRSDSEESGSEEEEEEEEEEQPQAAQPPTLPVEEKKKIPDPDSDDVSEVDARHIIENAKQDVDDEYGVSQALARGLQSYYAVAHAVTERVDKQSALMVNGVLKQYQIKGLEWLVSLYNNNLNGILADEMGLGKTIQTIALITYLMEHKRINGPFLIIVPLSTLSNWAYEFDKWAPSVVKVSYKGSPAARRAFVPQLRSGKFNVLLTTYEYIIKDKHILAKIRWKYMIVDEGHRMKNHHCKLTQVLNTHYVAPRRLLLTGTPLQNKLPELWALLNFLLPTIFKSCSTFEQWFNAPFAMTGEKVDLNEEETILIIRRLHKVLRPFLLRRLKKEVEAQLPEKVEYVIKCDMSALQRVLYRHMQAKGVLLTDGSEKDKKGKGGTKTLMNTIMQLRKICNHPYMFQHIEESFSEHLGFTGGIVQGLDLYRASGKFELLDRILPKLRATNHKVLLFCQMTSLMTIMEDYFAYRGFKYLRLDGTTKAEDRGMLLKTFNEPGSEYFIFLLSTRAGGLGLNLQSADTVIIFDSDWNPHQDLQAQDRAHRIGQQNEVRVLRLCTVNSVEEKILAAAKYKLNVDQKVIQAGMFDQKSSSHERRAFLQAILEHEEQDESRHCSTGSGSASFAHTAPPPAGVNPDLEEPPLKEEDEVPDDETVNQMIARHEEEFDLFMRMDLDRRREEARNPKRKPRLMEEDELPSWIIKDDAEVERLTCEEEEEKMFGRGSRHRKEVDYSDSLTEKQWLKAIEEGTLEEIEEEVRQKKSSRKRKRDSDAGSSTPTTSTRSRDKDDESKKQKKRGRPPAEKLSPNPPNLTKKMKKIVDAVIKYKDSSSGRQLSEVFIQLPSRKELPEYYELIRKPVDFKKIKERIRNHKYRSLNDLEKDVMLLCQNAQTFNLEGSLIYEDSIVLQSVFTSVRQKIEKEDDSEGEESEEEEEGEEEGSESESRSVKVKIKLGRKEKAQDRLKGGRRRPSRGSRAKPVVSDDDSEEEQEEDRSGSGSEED
Dmax [1] [%],Compound,BRM HiBit Degradation Maximum (%) [2]
< 50,"Nc1nnc(-c2ccccc2O)cc1OCC12CC(C(=O)N3CCC(CCN4CCN(c5ccc6c(c5)C(=O)N(C5CCC(=O)NC5=O)C6=O)CC4)CC3)(C1)C2 (stereo not shown) [Compound 94, 5-(4-(2-(1-(3-(((3-amino-6-(2-hydroxyphenyl)pyridazin-4-yl)oxy)methyl)bicyclo[1.1.1]pentane-1-carbonyl)piperidin-4-yl)ethyl)piperazin-1-yl)-2-(2,6-dioxopiperidin-3-yl)isoindoline-1,3-dione]",B (“B” indicates maximum degradation ≥ 50%)
< 50,"Nc1nnc(-c2ccccc2O)cc1OCC12CC(C(=O)NCCC3CCN(c4ccc5c(c4)C(=O)N(C4CCC(=O)NC4=O)C5=O)CC3)(C1)C2 (stereo not shown) [Compound 104, 3-(((3-amino-6-(2-hydroxyphenyl)pyridazin-4-yl)oxy)methyl)-N-(2-(1-(2-(2,6-dioxopiperidin-3-yl)-1,3-dioxoisoindolin-5-yl)piperidin-4-yl)ethyl)bicyclo[1.1.1]pentane-1-carboxamide]",C (“C” indicates maximum degradation < 50%)

# Further lines, the compound ahead of its results:
Compound,Dmax [1] [%],BRM HiBit Degradation Maximum (%) [2]
"Nc1nnc(-c2ccccc2O)cc1OCC12CC(C(=O)NCCOC3CN(c4ccc5c(c4)C(=O)N(C4CCC(=O)NC4=O)C5=O)C3)(C1)C2 (stereo not shown) [Compound 81, 3-(((3-amino-6-(2-hydroxyphenyl)pyridazin-4-yl)oxy)methyl)-N-(2-((1-(2-(2,6-dioxopiperidin-3-yl)-1,3-dioxoisoindolin-5-yl)azetidin-3-yl)oxy)ethyl)bicyclo[1.1.1]pentane-1-carboxamide]",> 50,B (“B” indicates maximum degradation ≥ 50%)
"Nc1nnc(-c2ccccc2O)cc1OCCC12CC(NC(=O)CCOCCOCCOc3cccc4c3C(=O)N(C3CCC(=O)NC3=O)C4=O)(C1)C2 (stereo not shown) [Compound 30, N-(3-(2-((3-amino-6-(2-hydroxyphenyl)pyridazin-4-yl)oxy)ethyl)bicyclo[1.1.1]pentan-1-yl)-3-(2-(2-((2-(2,6-dioxopiperidin-3-yl)-1,3-dioxoisoindolin-4-yl)oxy)ethoxy)ethoxy)propanamide]",< 50,C (“C” indicates maximum degradation < 50%)
"Cc1ncsc1-c1ccc(CNC(=O)[C@@H]2C[C@@H](O)CN2C(=O)[C@@H](NC(=O)CCCCCCCNC(=O)C23CC(COc4cc(-c5ccccc5O)nnc4N)(C2)C3)C(C)(C)C)cc1 [Compound 71, (2S,4R)-1-((S)-2-(8-(3-(((3-amino-6-(2-hydroxyphenyl)pyridazin-4-yl)oxy)methyl)bicyclo[1.1.1]pentane-1-carboxamido)octanamido)-3,3-dimethylbutanoyl)-4-hydroxy-N-(4-(4-methylthiazol-5-yl)benzyl)pyrrolidine-2-carboxamide]",< 50,B (“B” indicates maximum degradation ≥ 50%)

# From patent US12552775B2, “Compounds and uses thereof” (Foghorn Therapeutics Inc., priority 2020, dated 2026)
